According to paper PMC8591608, “DNDI-6148: A Novel Benzoxaborole Preclinical Candidate for the Treatment of Visceral Leishmaniasis” (Journal of Medicinal Chemistry, 2021):
Where two headings read alike, the source gives them in different places.

Columns and labels:
[1] = system: wild-type T. brucei trypanosomes; experiment: Drug sensitivity, wild-type T. brucei; assay type: cell-based; conditions: Trypanosoma brucei
Experimental: (§1) The clonal L. donovani cell line LdBOB (derived from MHOM/SD/62/1S-CL2D) was grown as promastigotes at 28 °C, as described previously. Bloodstream form T. brucei MiTat 1.2 clone 221a and its derived subline, 2T1, were cultured at 37 °C in the presence of 5% CO2 in HMI9-T medium, as described previously. T. brucei cell lines overexpressing CPSF3 and overexpressing a mutated version of CPSF3 (Asn232His) were generated as part of a previous study and cultured as described.[19]
(§2) Drug sensitivity assays with wild-type and transgenic T. brucei and L. donovani cell lines were carried out as previously described.[31],[32]

[2] = system: L. infantum; experiment: Intramacrophage L. infantum assay; assay type: cell-based; conditions: Leishmania infantum
How it was run: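 Ex vivo splenic amastigotes from infected hamsters used to infect primary macrophages (3 × 10^4 cells/4.5 × 10^5 parasites per well) in RPMI-1640 with 5% inactivated FCS. After 5 days' exposure, Giemsa-stained burdens counted microscopically versus untreated infected (100%) and uninfected (0%) controls; EC50 from 8-point 2-fold dilutions.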

[3] = system: L. donovani; experiment: L. donovani hamster model of VL; assay type: in vivo
Experimental: L. infantum (MHOM/MA/67/ITMAP263) and L. donovani (MHOM/ET/67/L82) were maintained in the golden (Syrian) hamster (Mesocricetus auratus). Ex vivo amastigotes were collected from the spleen of an infected donor hamster using two centrifugation purification steps: 230g for 10 min, keeping the supernatant layer, and 4100g for 30 min, keeping the pellet. The spleen parasite burden was assessed using the Stauber technique.[25] For in vitro assays, the inoculum was prepared in RPMI-1640 medium, supplemented with 200 mM L-glutamine, 16.5 mM NaHCO3, and 5% inactivated fetal calf serum. For the in vivo model, an infection inoculum containing 2 × 10^7 amastigotes/100 μL was prepared in phosphate-buffered saline (PBS).
Female golden hamsters for the in vivo model of visceral leishmaniasis were purchased from Janvier, France (body weight 80–100 g). This study using laboratory rodents was carried out in strict accordance with all mandatory guidelines (EU directives, including the Revised Directive 2010/63/EU on the protection of Animals used for Scientific Purposes that came into force on 01/01/2013, and the declaration of Helsinki in its latest version) and was approved by the ethical committee of the University of Antwerp, Belgium (UA-ECD 2011-74). Female golden hamsters for the pharmacokinetic study were purchased from Vital River, Beijing, China. This study was conducted following institutional review and in accordance with institutional and national guidelines at WuXi AppTec (the Institutional Animal Care and Use Committee (IACUC)). Balb/c mice for the in vivo model of visceral leishmaniasis (LSHTM) were purchased from Charles River, U.K., and related studies were conducted under license PPL 70/8427 from the U.K. Home Office.
Female golden hamsters were randomly allocated to experimental groups of six animals each, based on body weight. At the start of the experiment (Day 0), each animal was infected with L. infantum or L. donovani inoculum, delivered by intracardial injection. Six hamsters were assigned to the vehicle-treated, infected control group. Six hamsters were assigned per group (1 group/compound) for the evaluation of compound and miltefosine. At Day 21 postinfection (21 dpi), all animals in each group were dosed orally for five (or ten) consecutive days (21–25 dpi): compound was dosed at 25–50 mg/kg b.i.d.; miltefosine was dosed at 40 mg/kg q.d. At Day 35 (10 days after the final oral dose), all animals were euthanized and autopsies were conducted. The study evaluated the following parameters. • 1. Adverse effects: all animals were observed daily for the occurrence/presence of adverse effects. • 2. Body weight: all animals were weighed twice per week to monitor general health. • 3. Parasite burden: amastigote burdens in each target organ (liver, spleen, and bone marrow) were determined at Day 35. The organs of individual animals were weighed (except for bone marrow). Impression smears were stained with Giemsa for microscopic examination of the total amastigote burden, defined as the mean number of amastigotes per cell multiplied by the number of cells counted (minimum 500 nuclei); the results were expressed as a percentage reduction in amastigote burden compared to vehicle-treated, infected control animals.

[4] = target: CYP2C9 (Homo sapiens, UniProt P11712); experiment: CYP inhibition, CYP2C9; assay type: in vitro ADME; conditions: human liver microsomes
Experimental: The study was conducted by WuXi AppTec, Co., China, using the time-dependent (TDI) method. […] Following incubation with substrates (phenacetin for 1A2, diclofenac for 2C9, S-(+) mephenytoin for 2C19, dextromethorphan for 2D6, and midazolam or testosterone for 3A4), reactions were stopped by adding ice-cold acetonitrile, the samples were analyzed for the formation of metabolites by LC-MS/MS, and the percentage of inhibition was determined.

[5] = Hamster oral pharmacokinetic study; assay type: in vivo, golden Syrian hamsters; conditions: female, golden Syrian, plasma, single p.o. dose 50 mg/kg, read-out: AUC0–24 after single p.o. dose of 50 mg/kg
Experimental: […] The K2-EDTA anticoagulant was added to blood samples collected from 0.25 to 36 h, which were processed to plasma and stabilized with phosphoric acid (1% final) before analysis by LC-MS/MS. PK parameters were calculated using WinNonlin software (version 6.3).

[6] = system: CPSF3-overexpressing L. donovani promastigotes; experiment: Drug sensitivity, CPSF3-overexpressing L. donovani promastigotes; assay type: cell-based; conditions: Leishmania donovani
Experimental: as §1
L. donovaniCPSF3 gene (LdBPK_343210.1) was custom synthesized by GeneArt and ligated into the pIR1SAT vector via BglII restriction sites. Using the Q5 mutagenesis kit (NEB) and the pIR1SAT-LdCPSF3^WT construct as a template, mutations encoding A655C and Asn219His change to CPSF3^WT were introduced. Mutations were introduced using the specific primers 5′-GAGTACACGGCATCCGC-3′ and 5′-[…]-3′ and as per manufacturers’ instructions. Wild-type and mutated pIR1SAT constructs were digested with SwaI and transfected into L. donovani promastigotes, as previously described. Resistant clones were selected with nourseothricin (100 μg/mL), and two clones per transfection were selected for further study.
as §2

[7] = Table 5, geometric mean of at least two independent tests, read-out: intramacrophage L. infantum amastigote EC50

Chain of CYP2C9 (P11712 whole entry): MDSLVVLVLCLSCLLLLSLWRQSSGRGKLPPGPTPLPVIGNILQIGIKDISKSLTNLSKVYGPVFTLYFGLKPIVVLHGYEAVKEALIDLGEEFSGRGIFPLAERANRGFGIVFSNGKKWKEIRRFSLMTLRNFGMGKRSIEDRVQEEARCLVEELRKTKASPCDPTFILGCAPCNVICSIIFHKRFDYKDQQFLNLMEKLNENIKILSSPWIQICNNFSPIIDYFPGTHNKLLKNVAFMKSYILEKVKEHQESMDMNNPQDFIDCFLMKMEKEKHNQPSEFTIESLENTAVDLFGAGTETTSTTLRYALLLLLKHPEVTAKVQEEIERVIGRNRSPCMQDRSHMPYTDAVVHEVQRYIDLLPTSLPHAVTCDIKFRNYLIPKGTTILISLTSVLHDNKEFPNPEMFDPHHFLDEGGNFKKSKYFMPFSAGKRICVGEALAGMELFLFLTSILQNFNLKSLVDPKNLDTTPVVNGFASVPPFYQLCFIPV

| Compound | EC50 ([1]; Figure 2A) [nM] | EC50 ([1]; Figure 2B) [nM] | EC50 ([2]; Table 2, geometric mean of at least three independent assays, read-out: intramacrophage L. infantum EC50) [nM] | EC50 [2, 7] [nM] | reduction in parasite burden, bone marrow, 10 days ([3]; 25 mg/kg BID for 10 days) [%] | reduction in parasite burden, liver, 10 days ([3]; 25 mg/kg BID for 10 days) [%] | reduction in parasite burden, spleen, 10 days ([3]; 25 mg/kg BID for 10 days) [%] | reduction in parasite burden, bone marrow, 5 days ([3]; 50 mg/kg BID for 5 days) [%] | reduction in parasite burden, liver, 5 days ([3]; 50 mg/kg BID for 5 days) [%] | reduction in parasite burden, spleen, 5 days ([3]; 50 mg/kg BID for 5 days) [%] | IC50 [4] [nM] | AUC(0-t) [5] [ng·h/mL] | EC50 [6] [nM] | reduction in parasite burden, bone marrow, 5 days ([3]; 25 mg/kg BID for 5 days) [%] | reduction in parasite burden, liver, 5 days ([3]; 25 mg/kg BID for 5 days) [%] | reduction in parasite burden, spleen, 5 days ([3]; 25 mg/kg BID for 5 days) [%] |
| --- | --- | --- | --- | --- | --- | --- | --- | --- | --- | --- | --- | --- | --- | --- | --- | --- |
| Cc1c(C(=O)Nc2ccc3c(c2)B(O)OC3)nnn1-c1ccccn1 [Compound 23, N-(1-Hydroxy-1,3-dihydrobenzo[c][1,2]oxaborol-6-yl)-5-methyl-1-(pyridin-2-yl)-1H-1,2,3-triazole-4-carboxamide] | 47 ± 0.9 | 67 ± 1 | 1800 | 1800 | 99.6 | 99.9 | 99.8 | 83.4 | 99.3 | 98.6 | > 50000 | 120000 | 508 ± 13 |  |  |  |
| Cc1c(-c2ccccn2)coc1C(=O)Nc1ccc2c(c1)B(O)OC2 [Compound 28, N-(1-Hydroxy-1,3-dihydrobenzo[c][1,2]oxaborol-6-yl)-3-methyl-4-(pyridin-2-yl)furan-2-carboxamide] |  |  |  | 500 |  |  |  | 100 | 99.9 | 100 |  | 21000 |  | 94.5 | 95.9 | 95.9 |
